Experimental data from US8962547B2 (Signature Therapeutics, Inc., priority 2011, dated 2015).

What was measured:
[1] = Pharmacokinetics following PO administration to dogs, Study A (oxycodone in plasma)
[2] = Spacer leaving group cyclization release rate in phosphate buffer; format: physicochemical; settings: 2.18 mM initial, 50 mM pH 7.4 phosphate buffer, 20° C.
Text: (§1) Table 3 indicates the results of exposure of Compound KC-8 to trypsin. […] Table 3 also indicates the cyclization rate of the cyclizable spacer leaving group of Compound KC-22. The results are expressed as half-life of compound disappearance.

[3] = Pharmacokinetics of Compound KC-8 following PO administration to dogs, Study B; format: in vivo, dog; settings: 4.55 to 18.2 mg/kg
Method: Compound KC-8 was also dosed to dogs in a separate experiment at the doses indicated in Table 2B, and samples were collected at various times over a 48-h period. Otherwise, the procedures were the same as that described for Study A.

[4] = target: T1, trypsin (Bos taurus, UniProt P00760); test: In vitro trypsin-mediated prodrug cleavage; format: biochemical, bovine; settings: bovine, trypsin from bovine pancreas; 0.761 mM KC-8•2HCl, Tris pH 8, 37° C.; footnote: adjusted to 4815 BAEE U/mL trypsin
T1 construct: purchased Sigma-Aldrich T8003; host or cells: bovine pancreas
T1 sequence (P00760 24-246): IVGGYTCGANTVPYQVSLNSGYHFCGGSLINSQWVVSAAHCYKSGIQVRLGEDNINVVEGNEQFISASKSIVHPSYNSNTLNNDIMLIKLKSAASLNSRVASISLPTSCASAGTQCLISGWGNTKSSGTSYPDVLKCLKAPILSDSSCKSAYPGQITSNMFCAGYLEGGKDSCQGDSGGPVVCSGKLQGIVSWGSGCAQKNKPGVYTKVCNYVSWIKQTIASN
Method: (§2) The reactions were conducted at 37° C. for 24 h.
as §1

[5] = target: T2, trypsin from bovine pancreas (Bos taurus, UniProt P00760); test: In vitro trypsin-mediated prodrug cleavage; format: biochemical
T2 construct: purchased Sigma-Aldrich T8003; host or cells: bovine pancreas
T2 sequence (P00760 24-246): T1 sequence (P00760 24-246)
Method: as §2, §1

[6] = male, beagle, dog, plasma, po, 2 mg/kg

In the case of “N-1-[2-(oxycodone-6-enol-carbonyl-methyl-amino)-ethylamine]-arginine-malonic acid [Compound KC-3]”, the “OC Cmax ± sd” value ([1]; oxycodone in dog plasma, 4.15 mg/kg ([…]) PO, LLOQ […]) is reported as 10.2 ± 3.3 ng/mL and the “AUC ± sd 0-24 h” value ([1]; oxycodone in dog plasma, 4.15 mg/kg PO) is reported as 65.6 ± 22 ng·h/mL.
`COc1ccc2c3c1O[C@H]1C(OC(=O)N(C)CC(C)(C)CN)=CC[C@@]4(O)[C@@H](C2)N(C)CC[C@]314` [Compound KC-22, N-1-[3-(oxycodone-6-enol-carbonyl-methyl-amino)-2,2-dimethyl-propylamine]] gave a Disappearance half-life [2] of 624 ± 0.36 min.
For `COc1ccc2c3c1O[C@H]1C(=O)CC[C@@]4(O)[C@@H](C2)N(C)CC[C@]314.Cl` [Oxycodone, oxycodone HCl, reference compound], the AUC [1, 6] was 418 ± 54 ng·h/mL, the Cmax [1, 6] was 193 ± 69 ng/mL and the Tmax [1, 6] was 30 min.
With `COc1ccc2c3c1O[C@H]1C(OC(=O)N(C)CC(C)(C)CNC(=O)[C@H](CCCNC(=N)N)NC(=O)CNC(=O)CC(=O)O)=CC[C@@]4(O)[C@@H](C2)N(C)CC[C@]314` [Compound KC-8, N-1-[3-(oxycodone-6-enol-carbonyl-methyl-amino)-2,2-dimethyl-propylamine]-arginine-glycine-malonic acid] the “oral PK profile in dogs” value [3] was “reproducible oral PK profile in dogs that is dose proportional”, the half-life at 0.761 mM [4] was 11.3 ± 0.48 min and the OC formation rate ([5]; 0.761 mM KC-8•2HCl, Tris pH 8, 37° C.) was 0.296 ± 0.044 μmol/h/BAEE U. The cleavage by trypsin ([5]; in vitro) was “can be cleaved by trypsin”, the “oxycodone PK profile compared to administration of oxycodone” value ([1]; dogs, PO) was “suppressed oxycodone Cmax, delayed oxycodone Tmax and extended oxycodone exposure time (AUC)” and the “release of oxycodone into dog plasma compared to Compound KC-3” value ([1]; dogs, PO) was “significantly enhanced release of oxycodone into dog plasma (higher Cmax and AUC)”.
